Reference: patent publication US20230114728A1 (Venatorx Pharmaceuticals, Inc., priority 2019, published 2023)
Converted amounts (≈) assume the structure as drawn.

Assays:
[1] = system: A. baumannii CDC-0045 producing TEM-1D, OXA-23, and OXA-69; experiment: Broth microdilution MIC in iron-depleted CAMHB (IDM); type: cell-based; conditions: Acinetobacter baumannii, read-out: Minimum Inhibitory Concentration, CDC-0045
P. aeruginosa CDC-0110 = experiment: as above; type: cell-based; conditions: Pseudomonas aeruginosa, CDC0110, read-out: Minimum Inhibitory Concentration, P. aeruginosa CDC-0110
Method in brief: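 MIC is the lowest well showing no visible growth after 16-20 h at 37 °C, starting from 2-8×10^5 CFU/mL in 2-fold serial compound dilutions. Medium: cation-adjusted Mueller Hinton broth iron-depleted with Chelex 100, supplemented back with Ca, Mg and Zn, pH 7.3; CLSI protocol.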

Row | Compound | MIC [1] [µg/mL] | MIC (P. aeruginosa CDC-0110) [µg/mL]
1 | CCN1CCN(C(=O)NC(C(=O)N[C@H]2Cc3cccc(C(=O)O)c3OB2O)c2ccc(O)c(NC(=O)c3ccc(O)c(O)c3Cl)c2)C(=O)C1=O (stereo partly drawn) [Example 74, (3R)-3-(2-(3-(2-chloro-3,4-dihydroxybenzamido)-4-hydroxyphenyl)-2-(4-ethyl-2,3-dioxopiperazine-1-carboxamido)acetamido)-2-hydroxy-3,4-dihydro-2H-benzo[e][1,2]oxaborinine-8-carboxylic acid] | 32 to 64 (≈ 45.1 to 90.2 µM) | 2 to 4 (≈ 2.82 to 5.63 µM)
2 | O=C(O)c1ccc(C(NC(=O)c2ccc(O)c(O)c2Cl)C(=O)N[C@H]2Cc3cccc(C(=O)O)c3OB2O)cc1F (stereo partly drawn) [Example 7, (3R)-3-(2-(4-carboxy-3-fluorophenyl)-2-(2-chloro-3,4-dihydroxybenzamido)acetamido)-2-hydroxy-3,4-dihydro-2H-benzo[e][1,2]oxaborinine-8-carboxylic acid] | 32 to 64 (≈ 55.9 to 112 µM) | 2 to 4 (≈ 3.49 to 6.98 µM)
3 | O=C(NC(C(=O)N[C@H]1Cc2ccc(F)c(C(=O)O)c2OB1O)c1ncc(O)cc1F)c1c(F)cc(O)c(O)c1Cl (stereo partly drawn) [Example 10, (3R)-3-(2-(2-chloro-6-fluoro-3,4-dihydroxybenzamido)-2-(3-fluoro-5-hydroxypyridin-2-yl)acetamido)-7-fluoro-2-hydroxy-3,4-dihydro-2H-benzo[e][1,2]oxaborinine-8-carboxylic acid] | 32 to 64 (≈ 55 to 110 µM) | 0.5 to 1 (≈ 0.86 to 1.72 µM)
4 | NCCN1CCN(C(=O)N[C@@H](C(=O)N[C@H]2Cc3ccc(F)c(C(=O)O)c3OB2O)c2c(F)cc(O)c(O)c2F)C(=O)C1=O (single isomer, unassigned) [Example 40] | 2 to 4 (≈ 3.28 to 6.57 µM) | 2 to 4 (≈ 3.28 to 6.57 µM)
5 | CCN1CCN(C(=O)NC(C(=O)N[C@H]2Cc3ccc(F)c(C(=O)O)c3OB2O)c2cc(F)c(O)c(O)c2Cl)C(=O)C1=O (stereo partly drawn) [Example 42, (3R)-3-(2-(2-chloro-5-fluoro-3,4-dihydroxyphenyl)-2-(4-ethyl-2,3-dioxopiperazine-1-carboxamido)acetamido)-7-fluoro-2-hydroxy-3,4-dihydro-2H-benzo[e][1,2]oxaborinine-8-carboxylic acid] | 0.25 (≈ 0.409 µM) | 0.25 (≈ 0.409 µM)
6 | CS(=O)(=O)N1CCN(C(=O)N[C@@H](C(=O)N[C@H]2Cc3ccc(F)c(C(=O)O)c3OB2O)c2c(F)cc(O)c(O)c2Cl)C1=O (single isomer, unassigned) [Example 35] | 0.25 (≈ 0.395 µM) | 0.5 to 1 (≈ 0.79 to 1.58 µM)
7 | CC(C)(C)[C@@H](NC(=O)N1CCN(CCNC(=O)c2c(F)cc(O)c(O)c2Cl)C(=O)C1=O)C(=O)N[C@H]1Cc2ccc(F)c(C(=O)O)c2OB1O [Example 80, (R)-3-((R)-2-(4-(2-(2-chloro-6-fluoro-3,4-dihydroxybenzamido)ethyl)-2,3-dioxopiperazine-1-carboxamido)-3,3-dimethylbutanamido)-7-fluoro-2-hydroxy-3,4-dihydro-2H-benzo[e][1,2]oxaborinine-8-carboxylic acid] | 8 to 16 (≈ 11.3 to 22.5 µM) | 0.5 to 1 (≈ 0.704 to 1.41 µM)
8 | NCCCN1CCN(C(=O)N[C@@H](C(=O)N[C@H]2Cc3ccc(F)c(C(=O)O)c3OB2O)c2c(F)cc(O)c(O)c2F)C(=O)C1=O (single isomer, unassigned) [Example 41] | 0.5 to 1 (≈ 0.802 to 1.6 µM) | 2 to 4 (≈ 3.21 to 6.42 µM)
9 | O=C(O)c1ccc(C(NC(=O)c2c(F)cc(O)c(O)c2Cl)C(=O)N[C@H]2Cc3ccc(F)c(C(=O)O)c3OB2O)cc1F (stereo partly drawn) [Example 71, (3R)-3-(2-(4-carboxy-3-fluorophenyl)-2-(2-chloro-6-fluoro-3,4-dihydroxybenzamido)acetamido)-7-fluoro-2-hydroxy-3,4-dihydro-2H-benzo[e][1,2]oxaborinine-8-carboxylic acid] | 32 to 64 (≈ 52.6 to 105 µM) | 0.25 (≈ 0.411 µM)
10 | O=C(O)c1c(F)ccc2c1OB(O)[C@@H](NC(=O)C(NC(=O)N1CCN(CCBr)C(=O)C1=O)c1c(F)cc(O)c(O)c1F)C2 (stereo partly drawn) [Example 38, (3R)-3-(2-(4-(2-bromoethyl)-2,3-dioxopiperazine-1-carboxamido)-2-(2,6-difluoro-3,4-dihydroxyphenyl)acetamido)-7-fluoro-2-hydroxy-3,4-dihydro-2H-benzo[e][1,2]oxaborinine-8-carboxylic acid] | 0.5 to 1 (≈ 0.743 to 1.49 µM) | 0.5 to 1 (≈ 0.743 to 1.49 µM)
11 | O=C(Nc1ccc(O)c(O)c1Cl)NC(C(=O)N[C@H]1Cc2ccc(F)c(C(=O)O)c2OB1O)c1ncc(O)cc1F (stereo partly drawn) [Example 9, (3R)-3-(2-(3-(2-chloro-3,4-dihydroxyphenyl)ureido)-2-(3-fluoro-5-hydroxypyridin-2-yl)acetamido)-7-fluoro-2-hydroxy-3,4-dihydro-2H-benzo[e][1,2]oxaborinine-8-carboxylic acid] | 32 to 64 (≈ 55.3 to 111 µM) | 32 to 64 (≈ 55.3 to 111 µM)
12 | NCCCN1CCN(C(=O)N[C@H](C(=O)N[C@H]2Cc3ccc(F)c(C(=O)O)c3OB2O)c2ccc(O)c(O)c2Cl)C(=O)C1=O (single isomer, unassigned) [Example 28] | 32 to 64 (≈ 51.5 to 103 µM) | 8 to 16 (≈ 12.9 to 25.7 µM)
13 | NCCCN1CCN(C(=O)N[C@@H](C(=O)N[C@H]2Cc3ccc(F)c(C(=O)O)c3OB2O)c2c(F)cc(O)c(O)c2Cl)C(=O)C1=O (single isomer, unassigned) [Example 27] | 0.5 to 1 (≈ 0.782 to 1.56 µM) | 2 to 4 (≈ 3.13 to 6.25 µM)
14 | O=C(NC(C(=O)N[C@H]1Cc2ccc(F)c(C(=O)O)c2OB1O)c1ncc(O)cc1F)c1ccc(O)c(O)c1Cl (stereo partly drawn) [Example 8, (3R)-3-(2-(2-chloro-3,4-dihydroxybenzamido)-2-(3-fluoro-5-hydroxypyridin-2-yl)acetamido)-7-fluoro-2-hydroxy-3,4-dihydro-2H-benzo[e][1,2]oxaborinine-8-carboxylic acid] | 32 to 64 (≈ 56.8 to 114 µM) | 0.5 to 1 (≈ 0.887 to 1.77 µM)
15 | NCCN1CCN(C(=O)N[C@@H](C(=O)N[C@H]2Cc3ccc(F)c(C(=O)O)c3OB2O)c2c(F)cc(O)c(O)c2Cl)C(=O)C1=O (single isomer, unassigned) [Example 26] | 0.5 to 1 (≈ 0.799 to 1.6 µM) | 0.5 to 1 (≈ 0.799 to 1.6 µM)
16 | NC(C(=O)N[C@H]1Cc2ccc(F)c(C(=O)O)c2OB1O)c1c(F)cc(O)c(O)c1Cl (stereo partly drawn) [Example 25, (3R)-3-(2-amino-2-(2-chloro-6-fluoro-3,4-dihydroxyphenyl)acetamido)-7-fluoro-2-hydroxy-3,4-dihydro-2H-benzo[e][1,2]oxaborinine-8-carboxylic acid] | 32 to 64 (≈ 72.3 to 145 µM) | 32 to 64 (≈ 72.3 to 145 µM)
